The nature of data set [1]: Cell viability assay (MTT) on MCF-10A. It counts as cell-based. Particulars: human, MCF-10A mammary gland epithelial cells, MCF-10A cells, four days. Here is the method:
To assess the viability of compounds IV and Va–i, the human mammary gland epithelial (MCF-10A) cell line was exploited. Compounds IV and Va–i were cultured for four days on MCF-10A cells before being evaluated for vitality using the MTT assay.
To test the viability of the new compounds, the human mammary gland epithelial (MCF-10A) cell line was used. Compounds IV and Va–i were incubated on MCF-10A cells for four days before being tested for viability using the MTT assay. See Supplementary Materials.
4.2. Biological evaluation
4.2.1. Cytotoxic activity using MTT Assay and evaluation of IC50
MTT assay was performed to investigate the effect of the synthesized compounds on mammary epithelial cells (MCF-10A). The cells were propagated in medium consisting of Ham's F-12 medium/ Dulbecco's modified Eagle's medium (DMEM) (1:1) supplemented with 10% foetal calf serum, 2 mM glutamine, insulin (10 μg/mL), hydrocortisone (500 ng/mL) and epidermal growth factor (20 ng/mL). Trypsin ethylenediamine tetra acetic acid (EDTA) was used to passage the cells after every 2-3 days. 96-well flat-bottomed cell culture plates were used to seed the cells at a density of 10^4 cells mL-1. The medium was aspirated from all the wells of culture plates after 24 h followed by the addition of synthesized compounds (in 200 μL medium to yield a final concentration of 0.1% (v/v) dimethyl sulfoxide) into individual wells of the plates. Four wells were designated to a single compound. The plates were allowed to incubate at 37°C for 96 h. Afterwards, the medium was aspirated and 3-[4,5-dimethylthiazol-2-yl]-2,5-diphenyltetrazolium bromide (MTT) (0.4 mg/mL) in medium was added to each well and subsequently incubated for 3 h. The medium was aspirated and 150 μL dimethyl sulfoxide (DMSO) was added to each well. The plates were vortexed followed by the measurement of absorbance at 540 nm on a microplate reader. The results were presented as inhibition (%) of proliferation in contrast to controls comprising 0.1%

The subject of data set [2] is human epithelial (A-549) cancer cell line. Put plainly: Antiproliferative assay, A-549. The format is cell-based. Particulars: A549, read-out: Antiproliferative Activity IC50 ± SEM, A-549. Here is the method: (§1) 4.2.1.2. Assay for antiproliferative effect
(§2) To explore the antiproliferative potential of compounds propidium iodide fluorescence assay was performed using different cell lines such as Panc-1 (pancreas cancer cell line), MCF-7 (breast cancer cell line), HT-29 (colon cancer cell line) and A-549 (epithelial cancer cell line), respectively.
(§3) To calculate the total nuclear DNA, a fluorescent dye (propidium iodide, PI) is used which can attach to the DNA, thus offering a quick and precise technique. PI cannot pass through the cell membrane and its signal intensity can be considered as directly proportional to quantity of cellular
(§4) DNA. Cells whose cell membranes are damaged or have changed permeability are counted as dead ones. The assay was performed by seeding the cells of different cell lines at a density of 3000-7500 cells/well (in200μl medium) in culture plates followed by incubation for 24h at 37 °C in humidified 5%CO2/95% air atmospheric conditions. The medium was removed; the compounds were added to the plates at 10 μM concentrations (in 0.1% DMSO) in triplicates, followed by incubation for 48h. DMSO (0.1%) was used as control. After incubation, medium was removed followed by the addition of PI (25 μl, 50μg/mL in water/medium) to each well of the plates. At - 80 °C, the plates were allowed to freeze for 24 h, followed by thawing at 25 °C. A fluorometer (Polar-Star BMG Tech) was used to record the readings at excitation and emission wavelengths of 530 and 620 nm for each well. The percentage cytotoxicity of compounds was calculated using […]
(§5) Where ATC= Absorbance of treated cells and AC= Absorbance of control. Erlotinib was used as positive control in the assay.

Data set [3] deals with breast cancer (MCF-7) cell line. Nature of the data set: Antiproliferative assay, MCF-7. To be noted: Homo sapiens, MCF7; read-out: Antiproliferative Activity IC50 ± SEM, MCF-7. The format is cell-based. Here is the method: as §1, §2, §3, §4, §5
Data set [4] has as its system pancreatic cancer (Panc-1) cell line. Nature of the data set: Antiproliferative assay, Panc-1. Particulars: Homo sapiens, read-out: Antiproliferative Activity IC50 ± SEM, Panc-1. It counts as cell-based. Here is the method:
as §1, §2, §3, §4, §5

The subject of data set [5] is colon cancer (HT-29) cell line. Put plainly: Antiproliferative assay, HT-29. The format is cell-based. To be noted: Homo sapiens, read-out: Antiproliferative Activity IC50 ± SEM, HT-29. Here is the method:
as §1, §2, §3, §4, §5

In data set [6] the test system is four human cancer cell lines (A-549, MCF-7, Panc-1, HT-29). Put plainly: Antiproliferative assay, average over the four cancer cell lines (GI50). It counts as cell-based. Particulars: average of the four cancer cell lines. Here is the method:
See Supplementary Materials.
as §1
To explore the antiproliferative potential of compounds propidium iodide fluorescence assay was performed using different cell lines such as Panc-1 (pancreas cancer cell line), MCF-7 (breast […]
as §3
DNA. Cells whose cell membranes are damaged or have changed permeability are counted as dead ones. The assay was performed by seeding the cells of different cell lines at a density of 3000- […]
The medium was removed; the compounds were added to the plates at 10 μM concentrations (in 0.1% DMSO) in triplicates, followed by incubation for 48h. DMSO (0.1%) was used as control. After incubation, medium was removed followed by the addition of PI (25 μl, 50μg/mL in water/medium) to each well of the plates. At - 80 °C, the plates were allowed to freeze for 24 h, followed by thawing at 25 °C. A fluorometer (Polar-Star BMG Tech) was used to record the readings at excitation and emission wavelengths of 530 and 620 nm for each well. The percentage cytotoxicity of compounds was calculated using […]
Where ATC= Absorbance of treated cells and AC= Absorbance of control. […]
positive control in the assay.

Take `NCC(c1ccccc1)c1c(-c2ccccc2)[nH]c2ccccc12` (stereo not drawn) [Compound IV, 2-phenyl-2-(2-phenyl-1H-indol-3-yl)ethan-1-amine]: the melting point (commonly the temperature of the solid-liquid transition) fell in the range of 167 to 169 °C. For the same compound, the viability (as a rule, a read-out of living cells in per cent, often relative to untreated cells) at 96 h, 50 µM in data set [1] came to 92%. Moreover, in data set [2], the concentration for half-maximal inhibition (IC50) (commonly the concentration that gives 50% inhibition) is 102 ± 10 nM. Also, in data set [3], the IC50 is 106 ± 10 nM. For the same compound, the IC50 in data set [4] is 104 ± 10 nM. Besides, in data set [5], the IC50 was 104 ± 10 nM. Besides, the GI50 (as a rule, the concentration at which growth is held to half of that of the control) in data set [6] was determined as 104 nM.
In turn, `CCc1c(C(=O)NCC(c2ccccc2)c2c(-c3ccccc3)[nH]c3ccccc23)[nH]c2ccc(Cl)cc12` (stereo not drawn) [Compound Vc, 5-Chloro-3-ethyl-N-(2-phenyl-2-(2-phenyl-1H-indol-3-yl)ethyl)-1H-indole-2-carboxamide] returned a melting point of 110 to 112 °C. The compound also displayed a viability at 96 h, 50 µM in data set [1] of 91%. In addition, the IC50 in data set [2] came out at 54 ± 5 nM. Besides, the concentration for half-maximal inhibition (IC50) in data set [3] is 57 ± 5 nM. Moreover, the IC50 in data set [4] came out at 56 ± 5 nM. The IC50 in data set [5] was determined as 55 ± 5 nM. This compound returned a 50% growth inhibitory concentration (GI50) in data set [6] of 56 nM.
For `C#Cc1cccc(Nc2ncnc3cc(OCCOC)c(OCCOC)cc23)c1` [Erlotinib, reference compound], the IC50 in data set [2] worked out at 30 ± 3 nM; in data set [3], 40 ± 3 nM; in data set [4], 30 ± 3 nM; in data set [5] it was 30 ± 3 nM.
Take `Cc1c(C(=O)NCC(c2ccccc2)c2c(-c3ccccc3)[nH]c3ccccc23)[nH]c2ccc(Cl)cc12` (stereo not drawn) [Vb, 5-Chloro-3-methyl-N-(2-phenyl-2-(2-phenyl-1H-indol-3-yl)ethyl)-1H-indole-2-carboxamide]: the melting point is 135 to 137 °C. Besides, the viability at 96 h, 50 µM in data set [1] came to 88%. The IC50 in data set [2] came to 58 ± 5 nM. Also, the IC50 in data set [3] came to 61 ± 6 nM. The IC50 in data set [4] was found to be 58 ± 5 nM. In data set [5], the IC50 worked out at 59 ± 5 nM. This compound also showed a GI50 in data set [6] of 59 nM.
Compound `CCc1c(C(=O)NCC(c2ccccc2)c2c(-c3ccccc3)[nH]c3ccccc23)[nH]c2ccc(Br)cc12` (stereo not drawn) [Vd, 5-Bromo-3-ethyl-N-(2-phenyl-2-(2-phenyl-1H-indol-3-yl)ethyl)-1H-indole-2-carboxamide] showed a melting point of 130 to 132 °C. This compound also registered a viability at 96 h, 50 µM in data set [1] of 89%. Besides, the IC50 in data set [2] was determined as 64 ± 6 nM. Besides, the IC50 in data set [3] was determined as 68 ± 6 nM. In addition, the half-maximal inhibitory concentration (IC50) in data set [4] worked out at 66 ± 6 nM. In data set [5], the IC50 turned out to be 66 ± 6 nM. In addition, it took 66 nM to inhibit growth in data set [6] by half (GI50).
On to `CCc1c(C(=O)NCC(c2ccccc2)c2c(-c3ccccc3)[nH]c3ccccc23)oc2ccc(Cl)cc12` (stereo not drawn) [Vi, 5-Chloro-3-ethyl-N-(2-phenyl-2-(2-phenyl-1H-indol-3-yl)ethyl)benzofuran-2-carboxamide], for which the melting point was 225 to 227 °C. This compound yielded a viability at 96 h, 50 µM in data set [1] of 89%. Besides, the IC50 in data set [2] was determined as 86 ± 8 nM. The IC50 in data set [3] amounted to 89 ± 8 nM. Further, the IC50 in data set [4] amounted to 85 ± 8 nM. In data set [5], the IC50 came to 85 ± 8 nM. Moreover, the 50% growth inhibitory concentration (GI50) in data set [6] was found to be 86 nM.

These data come from article PMC10385579, “Design, Synthesis, and Biological Evaluation of Indole-2-carboxamides as Potential Multi-Target Antiproliferative Agents” (Pharmaceuticals, 2023).
